Measured values: US20160199372A1, “IMIDAZOPYRIDAZINE KINASE INHIBITORS USEFUL TO TREATING A DISEASE OR DISORDER MEDIATED BY AAK1, SUCH AS ALZHEIMER'S DISEASE, BIPOLAR DISORDER, PAIN, SCHIZOPHRENIA” (Bristol-Myers Squibb Company, priority 2013, published 2016)

target: T1, GST-Xa-hAAK1 (Homo sapiens, UniProt Q2M2I8); experiment: AAK1 Kinase Assay; assay type: biochemical; settings: ATP 22 μM; GST-Xa-hAAK1 3.5 nM; 3 hours at room temperature; Caliper LabChip 3000
T1 construct: made in house
Description: IC50 values were derived by non-linear regression analysis.

T1 sequence (Q2M2I8 whole entry): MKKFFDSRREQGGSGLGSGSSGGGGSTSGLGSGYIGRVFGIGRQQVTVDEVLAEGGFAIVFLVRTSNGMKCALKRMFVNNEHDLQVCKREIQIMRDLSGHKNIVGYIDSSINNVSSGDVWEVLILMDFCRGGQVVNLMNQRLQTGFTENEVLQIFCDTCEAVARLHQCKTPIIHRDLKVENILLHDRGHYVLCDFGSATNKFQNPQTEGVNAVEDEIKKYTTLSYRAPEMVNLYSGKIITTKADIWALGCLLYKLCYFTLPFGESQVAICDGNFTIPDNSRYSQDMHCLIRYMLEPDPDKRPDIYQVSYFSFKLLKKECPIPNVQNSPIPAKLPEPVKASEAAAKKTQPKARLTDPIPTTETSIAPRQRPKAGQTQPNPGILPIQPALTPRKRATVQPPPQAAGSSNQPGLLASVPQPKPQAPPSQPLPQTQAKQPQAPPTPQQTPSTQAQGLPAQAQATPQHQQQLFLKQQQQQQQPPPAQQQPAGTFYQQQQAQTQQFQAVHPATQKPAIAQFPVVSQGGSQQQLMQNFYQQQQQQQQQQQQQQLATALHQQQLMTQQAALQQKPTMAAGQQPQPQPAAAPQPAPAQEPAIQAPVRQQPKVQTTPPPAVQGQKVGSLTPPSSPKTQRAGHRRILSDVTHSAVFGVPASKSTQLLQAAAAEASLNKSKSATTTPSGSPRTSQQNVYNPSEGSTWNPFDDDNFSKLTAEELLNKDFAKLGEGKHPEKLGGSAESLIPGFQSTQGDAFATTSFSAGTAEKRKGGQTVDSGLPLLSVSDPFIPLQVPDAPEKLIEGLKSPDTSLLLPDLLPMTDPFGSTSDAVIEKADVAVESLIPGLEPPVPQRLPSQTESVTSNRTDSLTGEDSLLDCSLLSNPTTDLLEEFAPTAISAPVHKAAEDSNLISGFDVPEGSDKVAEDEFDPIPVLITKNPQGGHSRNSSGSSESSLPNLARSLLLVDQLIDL

Row | Compound | IC50 [nM]
1 | Cc1nc(-c2cccc(NC(=O)c3cnc4c(Nc5ccccc5)cc(N[C@H]5CC[C@H](N)CC5)nn34)c2)co1 [Example 5, 6-(trans-4-Aminocyclohexylamino)-N-(3-(2-methyloxazol-4-yl)phenyl)-8-(phenylamino)imidazo[1,2-b]pyridazine-3-carboxamide] | 79
2 | CC(C)n1nnc(-c2cccc(NC(=O)c3cnc4c(Nc5ccccc5)cc(N[C@H]5CC[C@H](N)CC5)nn34)c2)n1 [Example 4, 6-(trans-4-Aminocyclohexylamino)-N-(3-(2-isopropyl-2H-tetrazol-5-yl)phenyl)-8-(phenylamino)imidazo[1,2-b]pyridazine-3-carboxamide] | 5.1
3 | CNc1cc(N[C@H]2CC[C@H](N)CC2)nn2c(C(=O)Nc3cccc(-c4nnn(C(C)C)n4)c3)cnc12 [Example 9, 6-(trans-4-Aminocyclohexylamino)-N-(3-(2-isopropyl-2H-tetrazol-5-yl)phenyl)-8-(methylamino)imidazo[1,2-b]pyridazine-3-carboxamide] | 8
4 | CC(C)c1nc(-c2cccc(NC(=O)c3cnc4c(Nc5ccccc5)cc(N[C@H]5CC[C@H](N)CC5)nn34)c2)no1 [Example 1, 6-(trans-4-Aminocyclohexylamino)-N-(3-(5-isopropyl-1,2,4-oxadiazol-3-yl)phenyl)-8-(phenylamino)imidazo[1,2-b]pyridazine-3-carboxamide] | 10
5 | N[C@H]1CC[C@H](Nc2cc(Nc3ccccc3)c3ncc(-c4ccsc4)n3n2)CC1 [Example 17, N^6-(trans-4-Aminocyclohexyl)-N^8-phenyl-3-(thiophen-3-yl)imidazo[1,2-b]pyridazine-6,8-diamine] | 10
6 | COc1ccc(Nc2cc(N[C@H]3CC[C@H](N)CC3)nn3c(-c4ccsc4)cnc23)cc1 [Example 22, N^6-(trans-4-Aminocyclohexyl)-N^8-(4-methoxyphenyl)-3-(thiophen-3-yl)imidazo[1,2-b]pyridazine-6,8-diamine] | 9
7 | CC(C)c1nnc(-c2cccc(NC(=O)c3cnc4ccc(N[C@H]5CC[C@H](N)CC5)nn34)c2)s1 [Example 12, 6-(trans-4-Aminocyclohexylamino)-N-(3-(5-isopropyl-1,3,4-thiadiazol-2-yl)phenyl)imidazo[1,2-b]pyridazine-3-carboxamide] | 9.1
8 | Cc1nc(-c2cccc(NC(=O)c3cnc4ccc(N[C@H]5CC[C@H](N)CC5)nn34)c2)co1 [Example 15, 6-(trans-4-Aminocyclohexylamino)-N-(3-(2-methyloxazol-4-yl)phenyl)imidazo[1,2-b]pyridazine-3-carboxamide] | 342
9 | CNc1cc(N[C@H]2CC[C@H](N)CC2)nn2c(-c3ccsc3)cnc12 [Example 20, N^6-(trans-4-Aminocyclohexyl)-N^8-methyl-3-(thiophen-3-yl)imidazo[1,2-b]pyridazine-6,8-diamine] | 38
10 | CN(C)[C@H]1CC[C@H](Nc2cc(Nc3ccccc3)c3ncc(-c4ccsc4)n3n2)CC1 [Example 19, N^6-(trans-4-(Dimethylamino)cyclohexyl)-N^8-phenyl-3-(thiophen-3-yl)imidazo[1,2-b]pyridazine-6,8-diamine] | 12
11 | CC(C)c1nc(-c2cccc(NC(=O)c3cnc4ccc(N[C@H]5CC[C@H](N)CC5)nn34)c2)co1 [Example 14, 6-(trans-4-Aminocyclohexylamino)-N-(3-(2-isopropyloxazol-4-yl)phenyl)imidazo[1,2-b]pyridazine-3-carboxamide] | 158
12 | N[C@H]1CC[C@H](Nc2ccc3ncc(C(=O)Nc4cccc(-c5coc(-c6ccccc6)n5)c4)n3n2)CC1 [Example 16, 6-(trans-4-Aminocyclohexylamino)-N-(3-(2-phenyloxazol-4-yl)phenyl)imidazo[1,2-b]pyridazine-3-carboxamide] | 154
13 | N[C@H]1CC[C@H](Nc2cc(NC3CC3)c3ncc(-c4ccsc4)n3n2)CC1 [Example 21, N^6-(trans-4-Aminocyclohexyl)-N^8-cyclopropyl-3-(thiophen-3-yl)imidazo[1,2-b]pyridazine-6,8-diamine] | 40
14 | CC(C)c1nc(-c2cccc(NC(=O)c3cnc4ccc(N[C@H]5CC[C@H](N)CC5)nn34)c2)no1 [Example 11, 6-(trans-4-Aminocyclohexylamino)-N-(3-(5-isopropyl-1,2,4-oxadiazol-3-yl)phenyl)imidazo[1,2-b]pyridazine-3-carboxamide] | 27
15 | Cc1nc(-c2cccc(NC(=O)c3cnc4c(Nc5ccccc5)cc(N[C@H]5CC[C@H](N)CC5)nn34)c2)cs1 [Example 7, 6-(trans-4-Aminocyclohexylamino)-N-(3-(2-methylthiazol-4-yl)phenyl)-8-(phenylamino)imidazo[1,2-b]pyridazine-3-carboxamide] | 114
16 | CC(C)c1nnc(-c2cccc(NC(=O)c3cnc4c(Nc5ccccc5)cc(N[C@H]5CC[C@H](N)CC5)nn34)c2)s1 [Example 2, 6-(trans-4-Aminocyclohexylamino)-N-(3-(5-isopropyl-1,3,4-thiadiazol-2-yl)phenyl)-8-(phenylamino)imidazo[1,2-b]pyridazine-3-carboxamide] | 11
17 | N[C@H]1CC[C@H](Nc2cc(Nc3ccccc3)c3ncc(C(=O)Nc4cccc(-c5coc(-c6ccccc6)n5)c4)n3n2)CC1 [Example 6, 6-(trans-4-Aminocyclohexylamino)-8-(phenylamino)-N-(3-(2-phenyloxazol-4-yl)phenyl)imidazo[1,2-b]pyridazine-3-carboxamide] | 940
18 | CNc1cc(N[C@H]2CC[C@H](N)CC2)nn2c(C(=O)Nc3cccc(-c4nnc(C(C)C)s4)c3)cnc12 [Example 8, 6-(trans-4-Aminocyclohexylamino)-N-(3-(5-isopropyl-1,3,4-thiadiazol-2-yl)phenyl)-8-(methylamino)imidazo[1,2-b]pyridazine-3-carboxamide] | 8.9
19 | CC(C)c1nc(-c2cccc(NC(=O)c3cnc4c(Nc5ccccc5)cc(N[C@H]5CC[C@H](N)CC5)nn34)c2)co1 [Example 3, 6-(trans-4-Aminocyclohexylamino)-N-(3-(2-isopropyloxazol-4-yl)phenyl)-8-(phenylamino)imidazo[1,2-b]pyridazine-3-carboxamide] | 94
20 | CNc1cc(N[C@H]2CC[C@H](N)CC2)nn2c(C(=O)Nc3cccc(-c4noc(C(C)C)n4)c3)cnc12 [Example 10, 6-(trans-4-Aminocyclohexylamino)-N-(3-(5-isopropyl-1,2,4-oxadiazol-3-yl)phenyl)-8-(methylamino)imidazo[1,2-b]pyridazine-3-carboxamide] | 16
21 | CC(C)n1nnc(-c2cccc(NC(=O)c3cnc4ccc(N[C@H]5CC[C@H](N)CC5)nn34)c2)n1 [Example 13, 6-(trans-4-Aminocyclohexylamino)-N-(3-(2-isopropyl-2H-tetrazol-5-yl)phenyl)imidazo[1,2-b]pyridazine-3-carboxamide] | 12

tested on: mice; experiment: formalin paw test (pain response); assay type: in vivo, mouse; settings: 60 mg/kg sc; administered 30 minutes prior to formalin injection; % response relative to gabapentin 200 mg/kg
Experimental: AAK1 homozygous (−/−) and their wild-type (+/+) littermates were tested using the formalin paw test in order to assess their acute and tonic nociceptive responses. For these tests, Automatic Nociception Analyzers (purchased from the Ozaki lab at University of California, San Diego) were used. A metal band was placed around the left hind paw of each mouse 30 minutes prior to testing. After the 30-minute acclimation period, 20 μl of 5% formalin is subcutaneously injected in the dorsal surface of the left hind paw. Mice were individually housed in cylindrical chambers for 45 minutes. Fresh 5% formalin solution was prepared by diluting formaldehyde (Formalde-fresh 20%, Fisher Scientific, Fair Lawn, N.J.) with distilled water. Investigatory compounds were administered 30 minutes prior to formalin injection.
A computer recorded flinches per minute, total flinches for phase I (acute phase=first 8 minutes), and total flinches for phase II (tonic phase=time between minutes 20-40 or 10-60 minutes for drug studies) through an electromagnetic field. See Yaksh T L, Ozaki G, McCumber D, Rathbun M, Svensson C, Malkmus S, Yaksh M C. An automated flinch detecting system for use in the formalin nociceptive bioassay. J Appl Physiol., 2001; 90:2386-402.
The same test was used to confirm that the administration of an AAK1 inhibitor can also affect pain response. […]

Row | Compound | Response [%]
22 | CC(C)c1nc(-c2cccc(NC(=O)c3cnc4c(Nc5ccccc5)cc(N[C@H]5CC[C@H](N)CC5)nn34)c2)no1 [Example 1, 6-(trans-4-Aminocyclohexylamino)-N-(3-(5-isopropyl-1,2,4-oxadiazol-3-yl)phenyl)-8-(phenylamino)imidazo[1,2-b]pyridazine-3-carboxamide] | 59

same assay, conditions: 200 mg/kg sc; administered 30 minutes prior to formalin injection; % response relative to gabapentin 200 mg/kg

Row | Compound | Response [%]
23 | NCC1(CC(=O)O)CCCCC1 [Gabapentin, reference compound] | 73
